As usually defined, the IC50 is the concentration that gives 50% inhibition.

One experiment deals with T1, CCKB receptor (Cavia porcellus, UniProt H0VZC5).
T1 sequence (H0VZC5 1-426): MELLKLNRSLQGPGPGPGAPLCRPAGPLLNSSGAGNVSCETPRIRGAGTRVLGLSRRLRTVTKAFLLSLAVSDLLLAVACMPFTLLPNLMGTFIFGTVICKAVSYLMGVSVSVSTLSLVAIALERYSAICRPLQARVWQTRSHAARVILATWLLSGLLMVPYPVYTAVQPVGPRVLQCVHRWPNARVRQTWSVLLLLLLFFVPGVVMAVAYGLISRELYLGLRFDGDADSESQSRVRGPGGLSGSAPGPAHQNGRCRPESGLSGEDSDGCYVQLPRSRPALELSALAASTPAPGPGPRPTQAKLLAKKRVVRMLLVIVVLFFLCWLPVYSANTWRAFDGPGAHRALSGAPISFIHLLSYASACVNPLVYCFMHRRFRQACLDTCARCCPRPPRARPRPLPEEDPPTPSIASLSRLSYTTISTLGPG
The experiment can be described thus: 125I-CCK-8 receptor binding assay, CCKB (guinea pig cerebral cortex). The settings on record: CCKB IC50, Table 1. On the procedure: CCKA and CCKB receptor binding assays were performed, by using guinea pig cerebral cortex (CCKB) or rat pancreas (CCKA). […]. J. Pharmacol., 269, 249-254]. Pancreatic membranes were prepared in a similar way but by Charpentier et al [(1988), Cyclic cholecystokinin analogues with high selectivity for central receptors., Proc Natl Acad Sci USA, 85, 1968-1972]. The […] CCK binding assay: Tissues were homogenised in ice cold sucrose (0.32 M, 25 ml) for 15 strokes at 500 rpm and centrifuged at 13000 rpm for 10 mins. The supernatant was re-centrifuged at 13000 rpm for 20 mins. The resulting pellet was re-dispersed to the required volume of buffer at 500 rpm and stored in aliquots at […].
The samples were incubated {with membranes (0.1 mg/ml)} in 20 mM Hepes, 1 mM EGTA, 5 mM MgCl2, 150 mm NaCl, 0.25 mg/ml bacitracin at pH 6.5 for 2 hrs at RT and then […] by centrifugation at 1100 rpm for 5 minutes. The membrane pellets were washed twice with water and the bound radioactivity was measured in a Packard Cobra Auto-gamma counter (B5005). All binding assays were carried out with L-363, 260 as an internal non-specific standard. Controls (no compound) were also added. All samples were made in duplicate and repeated twice. All compounds were initially screened for percentage inhibition at 20 μM.
With `O=C1Nc2ccc(Cl)cc2C(c2ccccc2)=NC1Nc1cccc(Cl)c1` (single isomer, unassigned) [Example 2], the 50% inhibitory concentration (IC50) was found to be 0.32 µM. In turn, `CN(Cc1ccccc1)C1N=C(c2ccccc2)c2cc(Cl)ccc2NC1=O` (single isomer, unassigned) [Example 6] had a half-maximal inhibitory concentration (IC50) of 0.86 µM. As for `CCCCc1ccc(NC2N=C(c3ccccc3)c3cc(Cl)ccc3NC2=O)cc1` (stereo not drawn) [Example 3], the concentration for half-maximal inhibition (IC50) was 0.58 µM. On the same count and under the same terms, with `Cc1ccc(NC2N=C(c3ccccc3)c3cc(Cl)ccc3NC2=O)cc1C` (stereo not drawn) [Example 4] the figure was 0.66 µM; with `O=C1Nc2ccc(Cl)cc2C(c2ccccc2)=NC1N1CCOCC1` (stereo not drawn) [Example 11], 2.7 µM.

The experiment is the same for the next values; noted with them: IC50 CCKB.
The compound `CC(C)N(C1CCCCC1)C1N=C(c2ccccc2)c2cc(Cl)ccc2NC1=O` (single isomer, unassigned) [Example 8] showed an IC50 of 0.19 µM. Turning to `CN(c1ccccc1)C1N=C(c2ccccc2)c2cc(Cl)ccc2NC1=O` (stereo not drawn) [Example 24, 7-chloro-3-(methylanilino)-5-phenyl-1,3-dihydro-2H-1,4-benzodiazepin-2-one], the IC50 amounted to 0.15 µM.

Turning to `Cc1ccc(NC2N=C(c3ccccc3)c3cc(Cl)ccc3NC2=O)cc1C` (stereo not drawn) [Example 31, 7-chloro-3-(3,4-dimethylanilino)-5-phenyl-1,3-dihydro-2H-1,4-benzodiazepin-2-one], the half-maximal inhibitory concentration (IC50) was found to be 0.92 µM.

Staying with this experiment, now noted: IC50 CCKB, Table 2.
Regarding `O=C1Nc2ccc(Cl)cc2C(c2ccccc2)=NC1N1CCCc2ccccc21` (stereo not drawn) [Example 17, 7-chloro-3-[3,4-dihydroquinolin-1(2H)-yl]-5-phenyl-1,3-dihydro-2H-1,4-benzodiazepin-2-one], the half-maximal inhibitory concentration (IC50) is 7.2 µM. `CC(=O)c1ccccc1NC1N=C(c2ccccc2)c2cc(Cl)ccc2NC1=O` (stereo not drawn) [Example 18, 3-(2 acetylanilino)-7-chloro-5-phenyl-1,3-dihydro-2H-1,4-benzodiazepin-2-one] had an IC50 of 8.4 µM.

Take `COc1cccc(NC2N=C(c3ccccc3)c3cc(Cl)ccc3NC2=O)c1` (stereo not drawn) [Example 19, 7-chloro-3-(3-methoxyanilino)-5-phenyl-1,3-dihydro-2H-1,4-benzodiazepin-2-one]: the IC50 stood at 1.5 µM. Same read-out and setting: with `COc1ccc(NC2N=C(c3ccccc3)c3cc(Cl)ccc3NC2=O)cc1OC` (stereo not drawn) [Example 20, 7-chloro-3-(3,4-dimethoxyanilino)-5-phenyl-1,3-dihydro-2H-1,4-benzodiazepin-2-one] the figure was 1.2 µM; with `O=C1Nc2ccc(Cl)cc2C(c2ccccc2)=NC1Nc1ccccc1` (stereo not drawn) [Example 22, 3-anilino-7-chloro-5-phenyl-1,3-dihydro-2H-1,4-benzodiazepin-2-one], 4.1 µM.

`O=C1Nc2ccc(Cl)cc2C(c2ccccc2)=NC1NCc1ccccc1` (stereo not drawn) [Example 23, 3-(benzylamino)-7-chloro-5-phenyl-1,3-dihydro-2H-1,4-benzodiazepin-2-one] registered an IC50 of 6 µM. Still for that read-out and setting: with `CN(Cc1ccccc1)C1N=C(c2ccccc2)c2cc(Cl)ccc2NC1=O` (stereo not drawn) [Example 25] the figure was 2.9 µM; with `CCCNC1N=C(c2ccccc2)c2cc(Cl)ccc2NC1=O` (stereo not drawn) [Example 28, 3-(propylamino)-7-chloro-5-phenyl-1,3-dihydro-2H-1,4-benzodiazepin-2-one], 8.9 µM; with `O=C1Nc2ccc(Cl)cc2C(c2ccccc2)=NC1NC1CCCCC1` (stereo not drawn) [Example 30, 7-chloro-3-(cyclohexylamino)-5-phenyl-1,3-dihydro-2H-1,4-benzodiazepin-2-one], 10.1 µM. Regarding `O=C1Nc2ccc(Cl)cc2C(c2ccccc2)=NC1N1CCCCC1` (stereo not drawn) [Example 32, 7-chloro-3-(piperidin-1-yl)-5-phenyl-1,3-dihydro-2H-1,4-benzodiazepin-2-one], the IC50 is above 15 µM. Compound `CC(C)N(C1CCCCC1)C1N=C(c2ccccc2)c2cc(Cl)ccc2NC1=O` (stereo not drawn) [Example 33, 7-chloro-3-(isopropylcyclohexylamino)-5-phenyl-1,3-dihydro-2H-1,4-benzodiazepin-2-one] displayed a concentration for half-maximal inhibition (IC50) above 15 µM. On the same count and under the same terms, with `CCN(C1CCCCC1)C1N=C(c2ccccc2)c2cc(Cl)ccc2NC1=O` (stereo not drawn) [Example 34, 7-chloro-3-(ethylcyclohexylamino)-5-phenyl-1,3-dihydro-2H-1,4-benzodiazepin-2-one] the figure was above 15 µM.

Still in this experiment, the particulars now being: IC50 CCKB, Table 4, alkylated oxazepam derivatives.
`C#CCN1C(=O)C(O)N=C(c2ccccc2)c2cc(Cl)ccc21` (stereo not drawn) [Example 58, 7-chloro-3-hydroxy-5-phenyl-1-prop-2-ynyl-1,3-dihydro-2H-1,4-benzodiazepin-2-one] registered an IC50 of 0.96 µM. Turning to `O=C1C(O)N=C(c2ccccc2)c2cc(Cl)ccc2N1Cc1ccccc1` (stereo not drawn) [Example 59, 7-chloro-3-hydroxy-5-phenyl-1-benzyl-1,3-dihydro-2H-1,4-benzodiazepin-2-one], the IC50 was 0.76 µM. In turn, `C=CCN1C(=O)C(O)N=C(c2ccccc2)c2cc(Cl)ccc21` (stereo not drawn) [Example 60, 7-chloro-3-hydroxy-5-phenyl-1-allyl-1,3-dihydro-2H-1,4-benzodiazepin-2-one] gave an IC50 of 0.98 µM.

`CCOC(=O)N1C(=O)C(O)N=C(c2ccccc2)c2cc(Cl)ccc21` (stereo not drawn) [Example 61, 7-chloro-3-hydroxy-5-phenyl-1-ethoxycarbonyl-1,3-dihydro-2H-1,4-benzodiazepin-2-one] registered an IC50 of 0.69 µM. The compound `O=C(CN1C(=O)C(O)N=C(c2ccccc2)c2cc(Cl)ccc21)c1ccccc1` (stereo not drawn) [Example 62, 7-chloro-3-hydroxy-5-phenyl-1-phenacyl-1,3-dihydro-2H-1,4-benzodiazepin-2-one] displayed an IC50 of 0.2 µM.

Still in this experiment, the particulars now being: Table 2; read-out: IC50 CCKB.
As to `Cc1c(NC2N=C(c3ccccc3)c3cc(Cl)ccc3NC2=O)c(=O)n(-c2ccccc2)n1C` (stereo not drawn) [Example 13], the IC50 stood at 9.3 µM. Same read-out and setting: with `COc1cc(NC2N=C(c3ccccc3)c3cc(Cl)ccc3NC2=O)cc(OC)c1C(C)=O` (stereo not drawn) [Example 21, 3-(4-acetyl-3,5-dimethoxyanilino)-7-chloro-5-phenyl-1,3-dihydro-2H-1,4-benzodiazepin-2-one] the figure was 5.3 µM.

These data come from patent publication US20070185094A1, “Novel 3-substitued-1,4-benzodiazepines” (ASTON UNIVERSITY, priority 2003, published 2007).
